From PMC8165744, “Identification of an Alternative Glycyrrhizin Metabolite Causing Liquorice-Induced Pseudohyperaldosteronism and the Development of ELISA System to Detect the Predictive Biomarker” (Frontiers in Pharmacology, 2021)

Experiments:
[1] = tested on: rat kidney slices; experiment: uptake into rat kidney slices; type: in vitro ADME, Sprague-Dawley (SD) rats; details: SD rat kidney slices incubated with pooled EHBR plasma for 2 h; p < 0.01
From the text: Uptake of Compound 4 by Rat Kidney Slices and Cells Expressing OAT1 and 3
For the uptake study of 4 into rat kidney slices, we used the samples obtained in our previous study ([Ishiuchi et al., 2019]). For the uptake study of 4 into the cells transiently expressing OAT1 and OAT3, we used the same protocol as in our previous study ([Makino et al., 2012]). cDNAs encoding human OAT1 and OAT3 inserted into pGH19 were generously supplied by Prof. Mitsuru Sugawara (Hokkaido University, Sapporo, Japan), and then subcloned into a pCI-neo mammalian expression vector (Promega, Madison, WI, United States). We used the same pooled plasma of male EHBRs orally treated with GA for 12 h used in our previous study ([Ishiuchi et al., 2019]).
FIGURE 2 Inhibitory effects of compound 4 on type-2 11β-hydroxysteroid dehydrogenase (11β-HSD2) using rat kidney microsome (A), and the uptake of 4 into rat kidney slices (B) or into HEK293 cells transfected with organic anion transporter (OAT) 1 (C) or OAT3 (D). […] Then, the amount of [^3H] cortisol was measured. […] Concentrations of 4 in kidney slice homogenates were measured using liquid chromatography-tandem mass spectrometry (LC-MS/MS). **p < 0.01 vs 4°C group using Student’s t-test (C) Male EHBRs were orally treated with GA (200 mg/kg) and their plasma samples were collected […] after treatment. […] Then, concentrations of 4 in cells were measured using LC-MS/MS. […]

[2] = tested on: anti-3MGA-mAb; experiment: competitive ELISA using anti-3MGA-mAb; type: binding; details: competitive ELISA in aqueous solution, 3MGA calibrated to 100%
Description: ELISA System Using anti-3MGA-mAb
An ELISA system to measure the cross-reactivity of compounds 3 and 4 by using 3MGA-HSA-conjugate and anti-3MGA-mAb was used according to the protocol in our previous study ([Ishiuchi et al., 2019]). To measure the concentration of 3 in human serum samples using the system ELISA, 3 was dissolved in normal human serum (Sigma) to prepare standard solutions (16 nM–2.0 µM) and the samples or standard solutions (each 10 µl) and ethanol (40 µl) were well mixed and centrifuged (1.2 × 10^4 × g for 7 min). The supernatant was dried up under nitrogen flow at 40°C overnight, and the residue was dissolved in Can Get Signal® Solution 1 (Toyobo Co., Ltd: Osaka, Japan) (50 µl). […] When the observed values were more than 400 nM, the deproteinized serum samples were further diluted with Can Get Signal® Solution 1 for two or four times and analyzed again to observe values from 15.6 to 400 nM.
FIGURE 4 Development of enzyme-linked immunosorbent assay (ELISA) system to measure concentrations of 3 in human serum samples using anti-18β-glycyrrhetyl-3-O-glucuronide (3MGA)-monoclonal antibody (mAb). […] Standard lines between absorbance and concentrations of compound 3 are shown (D) Accuracy of ELISA system in measuring concentrations of 3 in human serum samples using anti-3MGA-mAb. Human serum samples were deproteinized, and concentration of 3 was measured using ELISA system. […]

[3] = relationship of serum concentration of compound 4 with laboratory markers and symptoms of pseudohyperaldosteronism; type: in vivo, human
From the text: Evaluation of the Pathological Relationship Between Compound 4 and Pseudohyperaldosteronism Pathology
We recorded the following available clinical symptoms and laboratory data when blood samples were drawing from patients: age, sex, complications, concomitant medications, daily liquorice dose, duration of administration of liquorice-containing herbal preparations, symptoms (blood pressure and pedal oedema), and laboratory test values, namely: total protein, albumin, total and direct bilirubin, aspartate amino transferase, alanine amino transferase, blood urea nitrogen, creatinine, sodium, potassium, chloride, calcium, magnesium, prothrombin time, plasma renin activity or activated renin concentration, and plasma aldosterone concentration (blood test data), and urine concentrations of potassium and creatinine (urinalysis data). Samples were processed according to the individual institutional protocols, and all data were measured at each institution.
FIGURE 3 Concentration of 4 in human serum samples and three or laboratory markers (A) Strong positive correlation was identified between serum concentrations of 3 and 4.

uptake by kidney slices, 37°C vs 4°C [1]: significantly higher at 37 °C
correlation of serum concentration with plasma renin activity and aldosterone concentration ([3]; human serum samples): negative correlations
serum potassium concentration in participants with higher serum concentrations ([3]; human serum samples): tended to be lower
SMILES: CC1(C)[C@@H](OS(=O)(=O)O)CC[C@]2(C)[C@H]3C(=O)C=C4[C@@H]5C[C@@](C)(C(=O)O[C@@H]6O[C@H](C(=O)O)[C@@H](O)[C@H](O)[C@H]6O)CC[C@]5(C)CC[C@@]4(C)[C@]3(C)CC[C@@H]12 [Compound 4, 18β-glycyrrhetyl-3-O-sulfate-30-O-glucuronide]
cross-reactivity to anti-3MGA-mAb [2]: 40%
relationship with clinical symptoms ([3]; blood pressure, oedema): not significant
